Data set [1] in a line: pH of pH control agent dissolved or suspended in water. Format: physicochemical. To be noted: 1% w/v in water at 25° C. As for the experimental part: Here, the pH of the pH control agent is measured under the following conditions. To be precise, it is a pH of a solution or suspension obtained by dissolving or suspending a pH control agent in water at a concentration of 1% w/v at 25° C.
A pH control agent was dissolved or suspended in water at a concentration of 1% w/v at 25° C., and the resulting solution or suspension was measured for pH.

A short description of data set [2]: Solubility of compound A in aqueous solutions with different pHs. To be noted: thermodynamic from solid, 25° C. Format: physicochemical. As for the experimental part:
An excess amount of compound A and an aqueous solution were placed in a test tube, and the mixture was shaken at 25° C. for 30 sec every 5 min. After 30 min, the solution was filtered with a 0.45 μm membrane filter to give a sample. Using the sample, the concentration of compound A was measured under the following HPLC conditions.
detector: ultraviolet absorption photometer,
measurement wavelength: 260 nm
column: YMC-Pack ProC18, 3 μm, inner diameter: 6 mm,
column temperature: 25° C. • mobile phase: 0.05 mol/L phosphate buffer (pH 3.0)/acetonitrile mixed solution (1:1)

The structures appear in SMILES notation. Bounds are passed on as bounds.

A word on the solubility: it is the dissolved amount per volume that the medium holds.

For the compound `O=C([O-])/C=C/C(=O)O.[Na+]` [monosodium fumarate], the “pH (25° C.)” value in data set [1] is on record as 3.57.

Consider `CCOc1nc2cccc(C(=O)OCc3oc(=O)oc3C)c2n1Cc1ccc(-c2ccccc2-c2noc(=O)[nH]2)cc1.[K]` [compound A, (5-methyl-2-oxo-1,3-dioxol-4-yl)methyl 2-ethoxy-1-{[2′-(5-oxo-4,5-dihydro-1,2,4-oxadiazol-3-yl)biphenyl-4-yl]methyl}-1H-benzimidazole-7-carboxylate potassium salt], for which the solubility at 30 min in data set [2] (aqueous buffer, pH 2.0 Britton Robinson buffer) is less than 10 µg/mL; in data set [2] (aqueous buffer, pH 3.0 Britton Robinson buffer) it was less than 10 µg/mL; in data set [2] (aqueous buffer, pH 4.0 Britton Robinson buffer), less than 10 µg/mL; in data set [2] (aqueous buffer, pH 5.0 Britton Robinson buffer), less than 10 µg/mL; in data set [2] (aqueous buffer, pH 6.0 Britton Robinson buffer) it was less than 10 µg/mL; in data set [2] (aqueous buffer, pH 7.0 Britton Robinson buffer), 940 µg/mL. The solubility at 30 min in data set [2] (simulated gastric fluid, 0.1 mol/L HCl) was less than 10 µg/mL.

Take `O=P([O-])(O)O.[Na+]` [sodium dihydrogen phosphate]: the “pH (25° C.)” value in data set [1] is 4.56.

The values above are taken from US9066936B2, “Solid pharmaceutical composition comprising a benzimidazole-7-carboxylate derivative and a pH control agent” (Takeda Pharmaceutical Company Limited, priority 2007, dated 2015).
